The values that follow come from patent EP1211260A1, “Peptides from Ag85 of mycobacterium and uses thereof” (priority 2000, dated 2002).

Where a SMILES comes first, the peptide text is derived from it.

One assay deals with Recombinant HLA-A*201 (Homo sapiens, UniProt P04439, D140Y/D185E/D98H/E176V/E277Q/G131W/G231S/I119V/I121R/I166T/I218V/L300P/L318F/N151K/N90K/P208A/P217A/Q86G/Q94H/R138H/R169H/T345S). Briefly: biochemical. It is filed as binding.
Conditions: not given
Usually IC50 stands for the concentration that gives 50% inhibition. In the case of `CC[C@H](C)[C@H](NC(=O)[C@H](CCSC)NC(=O)[C@H](C)NC(=O)[C@H](CO)NC(=O)[C@H](CO)NC(=O)CNC(=O)[C@H](C)NC(=O)[C@H](CCSC)NC(=O)[C@@H](N)CO)C(=O)O` [126-134] (H-SMAGSSAMI-OH), the IC50 was found to be 1.7 µM.

`CC(C)C[C@H](NC(=O)[C@H](CCCNC(=N)N)NC(=O)[C@@H](NC(=O)[C@H](CC(N)=O)NC(=O)[C@H](CC(N)=O)NC(=O)[C@H](C)NC(=O)[C@@H](NC(=O)[C@H](CC(C)C)NC(=O)[C@@H](N)CCCCN)C(C)C)[C@@H](C)O)C(=O)O` [199-207] (H-KLVANNTRL-OH): the half-inhibitory concentration (IC50) amounted to 1.4 µM.

The same assay, now with this note: 20°C, 48 h; standard peptide HBV core 47-56 (52->C); read-out: HLA-A2 Binding Affinity(IC50; µM).
`CC(C)C[C@H](NC(=O)[C@H](Cc1ccc(O)cc1)NC(=O)[C@H](CCC(=O)O)NC(=O)[C@@H](NC(=O)[C@@H]1CCCN1C(=O)[C@H](CC(C)C)NC(=O)CN)C(C)C)C(=O)N[C@@H](CCC(N)=O)C(=O)N[C@H](C(=O)O)C(C)C` [5-13] (H-GLPVEYLQV-OH): the half-maximal inhibitory concentration (IC50) was determined as 7 µM.

For `CC(C)C[C@H](NC(=O)CNC(=O)[C@H](CC(=O)O)NC(=O)[C@H](CC(C)C)NC(=O)[C@H](CC(C)C)NC(=O)[C@@H](N)Cc1ccc(O)cc1)C(=O)N[C@@H](CCCNC(=N)N)C(=O)N[C@@H](C)C(=O)O` [37-44] (H-YLLDGLRA-OH), the IC50 came to 1.6 µM.

Turning to `CC[C@H](C)[C@H](NC(=O)[C@H](CO)NC(=O)[C@H](CC(C)C)NC(=O)CN)C(=O)N[C@H](C(=O)N[C@@H](CCSC)C(=O)N1CCC[C@H]1C(=O)N[C@H](C(=O)O)C(C)C)C(C)C` [65-72] (H-GLSIVMPV-OH), the concentration for half-maximal inhibition (IC50) was found to be 0.3 µM.

As for `CC(C)C[C@H](NC(=O)[C@H](Cc1c[nH]c2ccccc12)NC(=O)[C@H](CCC(N)=O)NC(=O)[C@@H]1CCCN1C(=O)[C@H](CC(C)C)NC(=O)[C@H](CCC(=O)O)NC(=O)[C@H](CO)NC(=O)[C@@H](NC(=O)[C@H](CC(C)C)NC(=O)[C@@H](N)Cc1ccccc1)[C@@H](C)O)C(=O)O` [100-109] (H-FLTSELPQWL-OH), the half-maximal inhibitory concentration (IC50) is 0.7 µM.

Turning to `CC(C)C[C@H](NC(=O)[C@H](Cc1c[nH]c2ccccc12)NC(=O)[C@H](CCC(N)=O)NC(=O)[C@@H]1CCCN1C(=O)[C@H](CC(C)C)NC(=O)[C@H](CCC(=O)O)NC(=O)[C@H](CO)NC(=O)[C@@H](NC(=O)[C@@H](N)CC(C)C)[C@@H](C)O)C(=O)O` [101-109] (H-LTSELPQWL-OH), the IC50 came out at 6 µM.

Regarding `CC[C@H](C)[C@H](NC(=O)[C@H](CCSC)NC(=O)[C@H](C)NC(=O)[C@H](CO)NC(=O)[C@H](CO)NC(=O)CNC(=O)[C@H](C)NC(=O)[C@H](CCSC)NC(=O)[C@@H](N)CO)C(=O)N[C@@H](CC(C)C)C(=O)O` [126-135] (H-SMAGSSAMIL-OH), the IC50 was found to be 0.5 µM.

With `CC[C@H](C)[C@H](NC(=O)[C@@H](N)Cc1ccccc1)C(=O)N[C@@H](Cc1ccc(O)cc1)C(=O)N[C@@H](C)C(=O)NCC(=O)N[C@@H](CO)C(=O)N[C@@H](CC(C)C)C(=O)N[C@@H](CO)C(=O)N[C@@H](C)C(=O)O` [143-151] (H-FIYAGSLSA-OH), the IC50 is 0.4 µM.

`CC[C@H](C)[C@H](NC(=O)[C@@H](N)Cc1ccccc1)C(=O)N[C@@H](Cc1ccc(O)cc1)C(=O)N[C@@H](C)C(=O)NCC(=O)N[C@@H](CO)C(=O)N[C@@H](CC(C)C)C(=O)N[C@@H](CO)C(=O)N[C@@H](C)C(=O)N[C@@H](CC(C)C)C(=O)O` [143-152, FIYAGSLSAL] (H-FIYAGSLSAL-OH): the half-inhibitory concentration (IC50) was 0.01 µM.

For the compound `CC[C@H](C)[C@H](NC(=O)[C@H](CC(C)C)NC(=O)[C@H](CO)NC(=O)[C@@H]1CCCN1C(=O)CNC(=O)[C@H](CCSC)NC(=O)CN)C(=O)NCC(=O)N[C@@H](CC(C)C)C(=O)O` [158-166] (H-GMGPSLIGL-OH), the IC50 turned out to be 1.4 µM.

For the compound `CC(C)C[C@H](NC(=O)[C@H](CCCNC(=N)N)NC(=O)[C@@H](NC(=O)[C@H](CC(N)=O)NC(=O)[C@H](CC(N)=O)NC(=O)[C@H](C)NC(=O)[C@@H](NC(=O)[C@H](CC(C)C)NC(=O)[C@@H](N)CCCCN)C(C)C)[C@@H](C)O)C(=O)N[C@@H](Cc1c[nH]c2ccccc12)C(=O)N[C@H](C(=O)O)C(C)C` [199-209] (H-KLVANNTRLWV-OH), the IC50 is 0.6 µM.

Regarding `CC(C)C[C@H](NC(=O)[C@@H](N)CCCNC(=N)N)C(=O)N[C@@H](Cc1c[nH]c2ccccc12)C(=O)N[C@H](C(=O)N[C@@H](Cc1ccc(O)cc1)C(=O)N[C@@H](CS)C(=O)NCC(=O)N[C@@H](CC(N)=O)C(=O)NCC(=O)N[C@H](C(=O)O)[C@@H](C)O)C(C)C` [206-215] (H-RLWVYCGNGT-OH), the IC50 was 2 µM.

Turning to `CC(C)C[C@H](NC(=O)[C@H](CC(N)=O)NC(=O)[C@H](CO)NC(=O)[C@H](CO)NC(=O)[C@H](CCCNC(=N)N)NC(=O)[C@@H](NC(=O)[C@H](Cc1ccccc1)NC(=O)[C@H](CC(N)=O)NC(=O)[C@H](CCC(=O)O)NC(=O)[C@H](CC(C)C)NC(=O)[C@@H](N)Cc1ccccc1)C(C)C)C(=O)O` [228-238] (H-FLENFVRSSNL-OH), the IC50 stood at 1.2 µM.
